According to patent publication US20230218624A1 (Urovant Sciences GmbH, priority 2017, published 2023):

Experiments:
β2-AR = β2-AR (Homo sapiens, UniProt P07550); experiment: Competition binding assay, membranes with recombinant β2-AR
[1] = Relative bioequivalence of aqueous and non-aqueous tablet; type: in vivo, human; conditions: 50 mg
From the text: An open-label, single-dose, randomized, two-period, two-treatment, two-sequence, crossover Phase 1 study evaluated the relative bioequivalence of two types of tablets with slightly different composition: aqueous tablet (test) and non-aqueous tablet (reference).

[2] = test system: males and females with OAB; experiment: Phase 3 12-week placebo controlled study in OAB; type: in vivo, human; conditions: Week 12
Description: After eight weeks, the dose could be increased to 100 mg once daily as clinically indicated.

[3] = test system: patients with overactive bladder; experiment: Phase 2 safety data, adverse events (main study and 52-week extension)
From the text: A placebo group was included in the main study, and a group that received tolterodine monotherapy was included in the main study and in the extension.

patients with OAB = experiment: Phase 2b cardiovascular safety: orthostatic AEs, HR and BP changes; type: in vivo, human; conditions: for DBP change from baseline ≥5 mm Hg, subjects / DBP change from baseline ≥10 bpm, subjects / DBP change from baseline ≥15 bpm, subjects / HR change from baseline ≥5 bpm, subjects / HR change from baseline ≥10 bpm, subjects / HR change from baseline ≥15 bpm, subjects / SBP change from baseline ≥5 mm Hg, subjects / SBP change from baseline ≥10 bpm, subjects / SBP change from baseline ≥15 bpm, subjects: 3 consecutive post-baseline visits
From the text: None led to discontinuation. The overall incidence of orthostatic symptoms was low.
Small differences in the percent of subjects exceeding categorical heart rate and blood pressure thresholds for vibegron were similar to those in the tolterodine arm.

β2-AR, sequence (P07550 whole entry): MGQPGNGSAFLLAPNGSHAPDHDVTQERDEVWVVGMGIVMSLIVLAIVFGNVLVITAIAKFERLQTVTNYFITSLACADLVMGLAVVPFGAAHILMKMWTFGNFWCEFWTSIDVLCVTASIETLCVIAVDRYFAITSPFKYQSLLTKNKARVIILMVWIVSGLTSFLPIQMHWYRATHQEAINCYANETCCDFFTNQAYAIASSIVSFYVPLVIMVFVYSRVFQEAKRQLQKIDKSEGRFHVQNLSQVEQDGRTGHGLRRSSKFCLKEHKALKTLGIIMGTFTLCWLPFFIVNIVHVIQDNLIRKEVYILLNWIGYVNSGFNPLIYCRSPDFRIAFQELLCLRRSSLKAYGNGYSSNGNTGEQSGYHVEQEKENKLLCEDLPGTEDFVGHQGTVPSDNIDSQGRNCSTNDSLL

O=C(Nc1ccc(C[C@@H]2CC[C@H]([C@H](O)c3ccccc3)N2)cc1)[C@@H]1CCc2nccc(=O)n21 [Vibegron, (6S)—N-[4-[[(2S,5R)-5-[(R)-hydroxy(phenyl)methyl]pyrrolidin-2-yl]methyl]phenyl]-4-oxo-7,8-dihydro-6H-pyrrolo[1,2-a]pyrimidine-6-carboxamide]
binding to β2-AR (β2-AR): does not bind | AUC0-inf GMR test to reference tablet [1]: 100.2% | Cmax GMR test to reference tablet [1]: 107.7% | Micturitions, LS mean placebo adjusted change from baseline (95% CI) ([2]; 50 mg): −0.86 (−1.12, −0.60) | Total incontinence episodes, LS mean placebo adjusted change from baseline (95% CI) ([2]; 50 mg): −0.30 (−0.49, −0.12) | Urge urinary incontinence episodes, LS mean placebo adjusted change from baseline (95% CI) ([2]; 50 mg): −0.27 (−0.44, −0.10) | Urgency episodes, LS mean placebo adjusted change from baseline (95% CI) ([2]; 50 mg): −0.51 (−0.76, −0.25) | Volume voided, LS mean placebo adjusted change from baseline (95% CI) ([2]; 50 mg): 25.76 (20.02, 31.46) mL | Micturitions, LS mean placebo adjusted change from baseline (95% CI) ([2]; 100 mg): −0.81 (−1.07, −0.55) | Total incontinence episodes, LS mean placebo adjusted change from baseline (95% CI) ([2]; 100 mg): −0.43 (−0.61, −0.24) | Urge urinary incontinence episodes, LS mean placebo adjusted change from baseline (95% CI) ([2]; 100 mg): −0.39 (−0.55, −0.22) | Urgency episodes, LS mean placebo adjusted change from baseline (95% CI) ([2]; 100 mg): −0.67 (−0.93, −0.42) | Volume voided, LS mean placebo adjusted change from baseline (95% CI) ([2]; 100 mg): 22.16 (16.44, 27.89) mL | Accidental overdose, % subjects ([3]; 3 mg, first 12 weeks): (2.1) % | Accidental overdose, n subjects ([3]; 3 mg, first 12 weeks): 3 | Accidental overdose, % subjects ([3]; 15 mg, first 12 weeks): (4.5) % | Accidental overdose, n subjects ([3]; 15 mg, first 12 weeks): 6 | Accidental overdose, % subjects ([3]; 50 mg, first 12 weeks): (2.7) % | Accidental overdose, n subjects ([3]; 50 mg, first 12 weeks): 4 | Accidental overdose, % subjects ([3]; 100 mg, first 12 weeks): (4.2) % | Accidental overdose, n subjects ([3]; 100 mg, first 12 weeks): 11 | ≥1 AE, n subjects ([3]; 100 mg, first 12 weeks): 107 | frequency of injuries ([3]; human, in vivo): 0.9% | increased exposure (potential risk) ([3]; human, in vivo): ~2 fold | SBP and DBP mean changes at Week 1 and mean maximum changes over 8 weeks, difference between placebo and vibegron (patients with OAB; 50 mg and 100 mg): < 1 mm Hg | HR mean maximum changes over 8 weeks, comparable to placebo (patients with OAB; all doses): < 2 bpm | DBP change from baseline, mean (week 1) (patients with OAB; vibegron 3 mg): −0.37 mm Hg | DBP change from baseline, mean maximum (week 1 to 8) (patients with OAB; vibegron 3 mg): 5.03 mm Hg | HR change from baseline, mean (week 1) (patients with OAB; vibegron 3 mg): 0.36 bpm | HR change from baseline, mean maximum (week 1 to 8) (patients with OAB; vibegron 3 mg): 5.57 bpm | SBP change from baseline, mean (week 1) (patients with OAB; vibegron 3 mg): −0.35 mm Hg | SBP change from baseline, mean maximum (week 1 to 8) (patients with OAB; vibegron 3 mg): 7.14 mm Hg | DBP change from baseline ≥5 mm Hg, subjects (patients with OAB; vibegron 3 mg): (10.0) % | DBP change from baseline ≥10 bpm, subjects (patients with OAB; vibegron 3 mg): (2.1) % | DBP change from baseline ≥15 bpm, subjects (patients with OAB; vibegron 3 mg): (0.7) % | HR change from baseline ≥5 bpm, subjects (patients with OAB; vibegron 3 mg): (11.4) % | HR change from baseline ≥10 bpm, subjects (patients with OAB; vibegron 3 mg): (3.6) % | HR change from baseline ≥15 bpm, subjects (patients with OAB; vibegron 3 mg): (0.7) % | SBP change from baseline ≥5 mm Hg, subjects (patients with OAB; vibegron 3 mg): (15.0) % | SBP change from baseline ≥10 bpm, subjects (patients with OAB; vibegron 3 mg): (7.1) % | SBP change from baseline ≥15 bpm, subjects (patients with OAB; vibegron 3 mg): (2.9) % | DBP change from baseline, mean (week 1) (patients with OAB; vibegron 15 mg): 0.03 mm Hg | DBP change from baseline, mean maximum (week 1 to 8) (patients with OAB; vibegron 15 mg): 6.37 mm Hg | HR change from baseline, mean (week 1) (patients with OAB; vibegron 15 mg): 0.35 bpm | HR change from baseline, mean maximum (week 1 to 8) (patients with OAB; vibegron 15 mg): 6.56 bpm | SBP change from baseline, mean (week 1) (patients with OAB; vibegron 15 mg): −0.34 mm Hg | SBP change from baseline, mean maximum (week 1 to 8) (patients with OAB; vibegron 15 mg): 8.93 mm Hg | subjects with orthostatic related AEs (patients with OAB; vibegron 15 mg group): 0.3% | DBP change from baseline ≥5 mm Hg, subjects (patients with OAB; vibegron 15 mg): (11.4) % | DBP change from baseline ≥10 bpm, subjects (patients with OAB; vibegron 15 mg): (2.3) % | DBP change from baseline ≥15 bpm, subjects (patients with OAB; vibegron 15 mg): (0.8) % | HR change from baseline ≥5 bpm, subjects (patients with OAB; vibegron 15 mg): (12.9) % | HR change from baseline ≥10 bpm, subjects (patients with OAB; vibegron 15 mg): (3.0) % | HR change from baseline ≥15 bpm, subjects (patients with OAB; vibegron 15 mg): (0.8) % | SBP change from baseline ≥5 mm Hg, subjects (patients with OAB; vibegron 15 mg): (16.7) % | SBP change from baseline ≥10 bpm, subjects (patients with OAB; vibegron 15 mg): (6.8) % | SBP change from baseline ≥15 bpm, subjects (patients with OAB; vibegron 15 mg): (0.8) % | DBP change from baseline, mean (week 1) (patients with OAB; vibegron 50 mg): −0.70 mm Hg | DBP change from baseline, mean maximum (week 1 to 8) (patients with OAB; vibegron 50 mg): 4.19 mm Hg | HR change from baseline, mean (week 1) (patients with OAB; vibegron 50 mg): 0.29 bpm | HR change from baseline, mean maximum (week 1 to 8) (patients with OAB; vibegron 50 mg): 5.49 bpm | SBP change from baseline, mean (week 1) (patients with OAB; vibegron 50 mg): −0.79 mm Hg | SBP change from baseline, mean maximum (week 1 to 8) (patients with OAB; vibegron 50 mg): 7.01 mm Hg | subjects with orthostatic related AEs (patients with OAB; vibegron 50 mg+tolterodine ER/vibegron 50 mg treatment group): 0.8% | DBP change from baseline ≥5 mm Hg, subjects (patients with OAB; vibegron 50 mg): (7.6) % | DBP change from baseline ≥10 bpm, subjects (patients with OAB; vibegron 50 mg): (3.5) % | DBP change from baseline ≥15 bpm, subjects (patients with OAB; vibegron 50 mg): (0.7) % | HR change from baseline ≥5 bpm, subjects (patients with OAB; vibegron 50 mg): (8.3) % | HR change from baseline ≥10 bpm, subjects (patients with OAB; vibegron 50 mg): (2.8) %
